Earlier results as cited in PMC10905719, “Accelerating Antimicrobial Peptide Discovery for WHO Priority Pathogens through Predictive and Interpretable Machine Learning Models” (ACS Omega, 2024).

Legend:
[1] = system: S. aureus ATCC 6538P; conditions: NewAMP_S, ref SI 3
From the text: page 7: 29213 8 S. aureus ATCC NewAMP_S HJH-6 KKLLKKLLRLLKVLLR 29213 0.75 6 GWGAKRWGKRGWKWKRH NewAMP_S GW18 W-COONH S. aureus ATCC 6538 3.12 2 3 […] S. aureus ATCC NewAMP_S RaCa-2 KC 6538P 2-4 3 S. aureus ATCC NewAMP_S RaCa-4 FLTFPGMTFGKLLGK 6538P No inhibition 3 […] S. aureus ATCC NewAMP_S RaCa-6 GKQ 6538P No inhibition 3 […] S. aureus ATCC NewAMP_S RaCa-7 SVGN 6538P No inhibition 3 S. aureus ATCC NewAMP_S RaCa-8 FPAIICKVSKNC 6538P No inhibition 3 S. aureus ATCC NewAMP_S RaCa-9 FYFPVSRKFGGK 6538P No inhibition 3 […] S ...

[2] = system: P. aeruginosa ATCC 10148; conditions: NewAMP_P, ref SI 3
From the text: page 6: NH2 8 LKKWLKKWTPKASQFFGLM- NewAMP_E AH-5 NH E. coli ATCC 25922 4.67 2 3 […] P. aeruginosa ATCC NewAMP_P RaCa-2 KC 10148 128 3 P. aeruginosa ATCC NewAMP_P RaCa-4 FLTFPGMTFGKLLGK 10148 No inhibition 3 […] P. aeruginosa ATCC NewAMP_P RaCa-6 GKQ 10148 No inhibition 3 […] P. aeruginosa ATCC NewAMP_P RaCa-7 SVGN 10148 No inhibition 3 P. aeruginosa ATCC NewAMP_P RaCa-8 FPAIICKVSKNC 10148 No inhibition 3 P. aeruginosa ATCC NewAMP_P RaCa-9 FYFPVSRKFGGK 10148 No inhibition 3 […] P. aeruginosa ATCC NewAMP_P RaCa-10 LEII 1 ...

[3] = system: Erythrocyte
From the text: page 8: 2 VGALAGFLYWHFLRKGTKM NewAMP_S Hm-AMP10 VGK S. aureus ST 88 248.00 NewAMP_S hHK-18 TGKASQFFGLM-NH S. aureus ATCC 151.63 2 25923 NewAMP_S AH-18 LKKWTGKASQFFGLM-NH S. aureus ATCC 222.71 2 25923 NewAMP_S AH-28 LKKWTLKASQFFGLM-NH S. aureus ATCC 229.89 2 25923 NewAMP_S AH-38 LKKWLKKWTGKASQFFGLM- S. aureus ATCC 9.18 NH2 25923 NewAMP_S AH-48 LKKWLKKWTLKASQFFGLM- S. aureus ATCC 4.70 NH2 25923 Sub-set Name Sequence Erythrocyte MHC(µg/mL) (% hemolysis) NewAMP_HE HJH-18 KLLKHKLLVTLA Erythrocyte 382.72a NewAMP_HE HJH-28 KLLKHKLLVTLR Erythrocyte 382.72a NewAMP_HE HJH-38 KLLKRKLLVTLR Erythrocyte 382 ...

[4] = system: E. coli ATCC 25922; conditions: NewAMP_E, ref SI 3
From the text: page 5: Table S3 NewAMP database1-9 Sub-set Name Sequence Bacterial Strain MIC (µg/mL) NewAMP_E HJH-58 KKLLRLLKVLLR E. coli ATCC 25922 1.5 3 […] NewAMP_E RaCa-2 KC E. coli ATCC 25922 4-16 3 […] NewAMP_E RaCa-6 GKQ E. coli ATCC 25922 No inhibition NewAMP_E RaCa-83 FPAIICKVSKNC E. coli ATCC 25922 No inhibition 3 […] NewAMP_E RaCa-10 LEII E. coli ATCC 25922 No inhibition 5 […] NewAMP_E Hydr_2 KLL-NH E. coli ATCC 25922 512 2 5 […] NewAMP_E Hydr_3 KAG-NH E. coli ATCC 25922 512 2 NewAMP_E Hydr_45 FLPLIGRVFSGIL ... || page 6: NH2 8 LKKWLKKWTPKASQFFGLM- NewAMP_E AH-5 NH E. coli ATCC 25922 4.67 2 3 […] P. aeruginosa ATCC NewAMP_P RaCa-2 KC 10148 128 3 P. aeruginosa ATCC NewAMP_P RaCa-4 FLTFPGMTFGKLLGK 10148 No inhibition 3 […] P. aeruginosa ATCC NewAMP_P RaCa-6 GKQ 10148 No inhibition 3 […] P. aeruginosa ATCC NewAMP_P RaCa-7 SVGN 10148 No inhibition 3 P. aeruginosa ATCC NewAMP_P RaCa-8 FPAIICKVSKNC 10148 No inhibition 3 P. aeruginosa ATCC NewAMP_P RaCa-9 FYFPVSRKFGGK 10148 No inhibition 3 […] P. aeruginosa ATCC NewAMP_P RaCa-10 LEII 1 ...

Row | Sequence | MIC [1] | MIC [2] | % hemolysis at MHC [3] | MIC [4]
1 | FYFPVSRKFGGK [RaCa-9, newly published AMP of the NewAMP test set] | No inhibition | No inhibition | – | –
2 | SNRDFFKVNIFRLCG [RaCa-11, newly published AMP of the NewAMP test set] | No inhibition | No inhibition | – | –
3 | KKLLKKLLRLLKVLLR [HJH-6, newly published AMP of the NewAMP test set] | – | – | 90% | –
4 | FPAIICKVSKNC [RaCa-8, newly published AMP of the NewAMP test set] | No inhibition | No inhibition | – | No inhibition
5 | FLTFPGMTFGKLLGK [RaCa-4, newly published AMP of the NewAMP test set] | No inhibition | No inhibition | – | –
6 | FILYGLIRFGRLLRK [Hm-AMP4, newly published AMP of the NewAMP test set] | – | – | 77% | –
